Measured values published in patent US20140221324A1, “COMPOSITION FOR THE REDUCTION OF DRIP LOSSES IN PORK” (DSM IP ASSETS B.V., priority 2008, published 2014).

Key:
Format in all cases: in vivo, pig (Large-White x Landrace)
growing-fattening pig [1] = assay: Carcass cold yield after long-term dietary supplementation of growing-fattening pigs; details: for carcasses' cold yield, value in brackets relative to group A (100): index, group A (2000 IU/kg D3) = 100; for carcasses' cold yield: pigs fed supplemented diet (2000 IU/kg D3 or 50 μg/kg 25-OH D3), carcass weighed after 24 h at +4° C., mean ± SD of 20 determinations
Procedure: (§1) Fifty 28-d old Large-White x Landrace weaner piglets having an initial body weight of 7.9±0.74 kg were used. The animals were allocated into two equal groups (A and B) and housed in cages in sub-groups (two of 8 and one of 9 animals) in an environmentally controlled room. […] Room temperature was initially 27° C. and was lowered weekly by about 2° C. until 21-22° C. Environment humidity percentage throughout the experiment was 50%. The experiments were performed in the facilities of the Centre de Recherche en Nutrition Animate (CRNA), DSM Nutritional Products France, BP 170, 68305 Saint-Louis cedex, France. They have been performed according to the French legal regulations on experiments with live animals.
(§2) Each group of animals was fed either a basal diet with the addition of 2000 IU/kg of vitamin D3 (group A) or the basal diet, without vitamin D3, and supplemented with 50 μg/kg of 25-hydroxycholecalciferol (Rovimix® Hy•D® commercially available from DSM Nutritional Products) (group B).
(§3) At the end of the post-weaning phase the twenty heaviest animals of each group were used for the growing-fattening period. […] Room temperature was 21-22° C. and humidity percentage was 50%.
(§4) The pigs were fed for 87 days a diet supplemented either with 2000 IU/kg of vitamin D3 (group A, animals ingesting during the post-weaning phase 2000 U/kg) or with 50 μg/kg of 25-hydroxycholecalciferol (group B, animals ingesting during the post-weaning phase 50 μg/kg). The basal diet (Table 2) was formulated to meet the animals' requirements according to Henry et al. 1989 In: L'alimentation des animaux domestiques—pore, lapin, volailles INRA), 2ème édition, INRA, Paris, 49-76 and NRC, 1998. Nutrient requirements of swine, 10th revised edition, National Academic Press. Washington DC, U.S.A.
At the end of the experiment, all animals were randomly divided into four different lots and assigned to one slaughter campaign: days 84th, 85th, 86th and 87th. Animals of each lot were fasted for 12 hours and weighed just before they were slaughtered after tranquilization and stunning. The carcasses were sawed longitudinally following the spinal canal and weighed after 24 hours storage at +4° C. to estimate the carcasses' cold yield.
(§5) Statistical treatment of the results involved the calculation of the mean and the standard deviation of the mean as well as a two-factor hierarchical analysis of variance at 95% confidence level.

growing-fattening pig [2] = assay: Carcass lean/fat ratio after long-term dietary supplementation of growing-fattening pigs; details: for carcasses' lean/fat ratio, value in brackets relative to group A (100): index, group A (2000 IU/kg D3) = 100; for carcasses' lean/fat ratio: pigs fed supplemented diet (2000 IU/kg D3 or 50 μg/kg 25-OH D3), mean ± SD of 20 determinations
Procedure: as §1, §2, §3, §4
In the second mid-carcass lean and fat were measured at three different points with a caliper square tool. Muscular depth was measured after dissection of the ilio-spinalis muscle (longissimus dorsi) at the level of the 4th dorsal vertebrae. The sub-cutaneous back fat deposition was measured at the levels of the 4th dorsal and lumbar vertebras. These measures were used to estimate the carcasses' lcan/fat ratio.
as §5

[3] = system: ilio-spinalis (longissimus dorsi) muscle; assay: pH of the ilio-spinalis (longissimus dorsi) muscle at slaughter and after 24 h storage; details: for pH after 24 h / pH at slaughter: ilio-spinalis muscle, mean ± SD of 20 determinations; for pH after 24 h: after 24 hours storage at +4° C.; for pH at slaughter: measured immediately; for pH after 24 h, value in brackets relative to group A (100) / pH at slaughter, value in brackets relative to group A (100): index
Procedure: as §1, §2, §3, §4
(§6) In one of the mid-carcass, the entire ilio-spinalis muscle (longissimus dorsi) was dissected. Each muscle was weighed and pH was measured immediately and after 24 hours storage at +4° C. The muscles were individually conditioned into inflated plastic bags for water recovery during storage. Percentage of drip loses from muscles was estimated by weight difference and water recovery.
as §5

[4] = system: ilio-spinalis (longissimus dorsi) muscle; assay: Drip losses of the ilio-spinalis (longissimus dorsi) muscle; details: for Drip loss by water recovery / Drip loss by weight difference: ilio-spinalis muscle, mean ± SD of 20 determinations; for Drip loss by water recovery: 24 h storage at +4° C. in plastic bags; for Drip loss by weight difference: 24 h storage at +4° C.; for Drip loss by water recovery, value in brackets relative to group A (100) / Drip loss by weight difference, value in brackets relative to group A (100): index
Procedure: as §1, §2, §3, §4, §6, §5

[5] = dietary supplementation vs. vitamin D3 control group

Structure (SMILES) | carcasses' cold yield, value in brackets relative to group A (100) (growing-fattening pig [1]) | carcasses' cold yield (growing-fattening pig [1]) | carcasses' lean/fat ratio, value in brackets relative to group A (100) (growing-fattening pig [2]) | carcasses' lean/fat ratio (growing-fattening pig [2]) | pH after 24 h [3] | pH at slaughter [3] | pH after 24 h, value in brackets relative to group A (100) [3] | pH at slaughter, value in brackets relative to group A (100) [3] | Drip loss by water recovery [4] | Drip loss by weight difference [4] | Drip loss by water recovery, value in brackets relative to group A (100) [4] | Drip loss by weight difference, value in brackets relative to group A (100) [4] | effect on the cold yield of the carcasses (in words) (growing-fattening pig [1]; [5]) | effect on the lean/fat ratio of the carcasses (in words) (growing-fattening pig [2]; [5]) | pH values immediately after slaughter and after 24 hours storage compared to control group (in words) ([3]; ilio-spinalis muscle segments) | mass lost from muscular segments (in words) ([4]; vs. control group) | water volumes recovered from muscular segments (in words) ([4]; vs. control group)
C=C1CC[C@H](O)C/C1=C/C=C1\CCC[C@]2(C)[C@@H]([C@H](C)CCCC(C)C)CC[C@@H]12 [D3, vitamin D3] | (100) | 81.85 ± 0.76^(1) % of live weight | (100) | 68.42 ± 2.26^(1) % | 5.49 ± 0.05^(1) | 5.85 ± 0.21^(1) | (100) | (100) | 0.78 ± 0.74^(1) % | 1.94 ± 0.85^(1) % | (100) | (100) |  |  |  |  | 
C=C1CC[C@H](O)C/C1=C/C=C1\CCC[C@]2(C)[C@@H]([C@H](C)CCCC(C)(C)O)CC[C@@H]12 [25-OH D3, 25-hydroxycholecalciferol] | (99) | 81.11 ± 1.71 % of live weight | (99) | 67.70 ± 2.99% | 5.51 ± 0.04 | 5.89 ± 0.16 | (100) | (101) | 0.45 ± 0.23% | 1.51 ± 0.28% | (58) | (78) | no positive effects | no positive effects | similar | less mass was lost | clearly smaller water volumes were recovered
